Literature values in US7759386B2, “Pharmaceutical compositions of estrogenic agents” (Wyeth LLC, priority 2000, dated 2010).

Conditions: after 1 year of storage; best antioxidant system described; solid state, tablets

C=C1CC[C@H](O)C/C1=C/C=C1\CCC[C@]2(C)[C@@H]([C@H](C)CCCC(C)C)CC[C@@H]12 [cholecalciferol]
original content remaining: 87.6%
